Assay results as given in article PMC13114161 (Antibiotics, 2026).
Like-named read-outs stand apart in the source and are kept apart here.

Legend:
Assay type in all cases: cell-based, Pseudomonas aeruginosa
[1] = test system: P. aeruginosa; experiment: MIC potentiation of antimicrobial agents by EPIs; details: for Fold difference of antibiotic MIC + TXA01182 / MIC of antibiotic + TXA01182: TXA01182 at […]; for Fold difference of antibiotic MIC + TXA09155 / MIC of antibiotic + TXA09155: TXA09155 at […]; for Fold difference of antibiotic MIC + TXA11114 / MIC of antibiotic + TXA11114: TXA11114 at […];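 on Fold difference of antibiotic MIC + TXA01182: TXA01182 tested at 6.25 µg/mL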;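 on Fold difference of antibiotic MIC + TXA09155: TXA09155 tested at 6.25 µg/mL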; on Fold difference of antibiotic MIC + TXA11114: TXA11114 at 6.25 µg/mL;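 on MIC of antibiotic + TXA01182: TXA01182 tested at 6.25 µg/mL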;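 on MIC of antibiotic + TXA09155: TXA09155 tested at 6.25 µg/mL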; on MIC of antibiotic + TXA11114: TXA11114 at 6.25 µg/mL
Description: In contrast, the activities of gentamicin and imipenem were unchanged in the presence of TXA11114 under the conditions tested. Although gentamicin can be transported by the MexXY efflux system, the absence of potentiation in this assay is not sufficient to draw conclusions regarding MexXY inhibition or overall efflux specificity.
(§1) MIC assays for potentiation of antimicrobial activity against P. aeruginosa were performed as described previously.

[2] = test system: P. aeruginosa ATCC 27853; experiment: MIC and levofloxacin potentiation (broth microdilution)
Description: Once synthesized, the three fluorinated EPI analogs (TXA11114, TXA11164 and TXA12027) were first assayed for their antibacterial activities against P. aeruginosa ATCC 27853. They had MICs of 100, >200 and 100 µg/mL, respectively (Table 1). […] Particularly, the inactivity of TXA11164 was surprising as the pKa values of both the amines are similar to that in TXA11114.
as §1

[3] = test system: P. aeruginosa ATCC 27853 ompH mutants EPIR32, EPIR36, EPIR38; experiment: microbe, parasite or virus in culture
Description: as §1

[4] = ATCC 27853 parent strain (Table S1)
[5] = Pseudomonas aeruginosa, ATCC27853, EPIR32
[6] = Pseudomonas aeruginosa, ATCC27853, EPIR36
[7] = Pseudomonas aeruginosa, ATCC27853, EPIR38
[8] = Pseudomonas aeruginosa, ATCC27853, ATCC 27853 parent strain (Table S1), read-out: MIC

MIC of antibiotic + TXA09155 [1] [µg/mL] | Molecule | MIC of antibiotic + TXA01182 [1] [µg/mL] | MIC of antibiotic + TXA11114 [1] [µg/mL] | MIC [2, 4] [µg/mL] | MIC [3, 5] [µg/mL] | MIC [3, 7] [µg/mL] | other results
2 | CNC(C)C1CCC(N)C(OC2C(N)CC(N)C(OC3OCC(C)(O)C(NC)C3O)C2O)O1 (stereo not shown) [Gentamicin] | 2 | 2 |  |  |  | Fold difference of antibiotic MIC + TXA01182 [1]: 1 fold; Fold difference of antibiotic MIC + TXA09155 [1]: 1 fold; Fold difference of antibiotic MIC + TXA11114 [1]: 1 fold; Fold difference of antibiotic MIC + TXA11114 ([1]; listed as gentamicin): unchanged
 | polymyxin B [PMB] |  |  | 2 |  |  | MIC ([3]; EPIR32): 4 µg/mL; MIC ([3]; EPIR36): 4 µg/mL; MIC ([3]; EPIR38): 4 µg/mL
 | CC[C@H]1OC(=O)[C@H](C)[C@@H](O[C@H]2C[C@@](C)(OC)[C@@H](O)[C@H](C)O2)[C@H](C)[C@@H](O[C@@H]2O[C@H](C)C[C@H](N(C)C)[C@H]2O)[C@](C)(O)C[C@@H](C)CN(C)[C@H](C)[C@@H](O)[C@]1(C)O [AZM, azithromycin] |  |  | 64 | 32 | 64 | MIC [3, 6]: 16 µg/mL
 | NCCC(F)[C@@H](N)CNC(=O)c1cc2ccc(-c3ccc(F)cc3)cc2[nH]1 (stereo partly drawn) [TXA11164, N-((2S)-2,5-diamino-3-fluoropentyl)-6-(4-fluorophenyl)-1H-indole-2-carboxamide] |  |  |  |  |  | EPI MIC ([2]; EPI alone, ATCC 27853): >200 µg/mL; Fold MIC reduction [LVX/EPI-LVX] ([2]; EPI at […], ATCC 27853, listed as TXA11167): lacked potentiation activity; MIC ([2]; Pseudomonas aeruginosa, ATCC27853, EPI alone, ATCC 27853, read-out: EPI MIC): > 200 µg/mL; LVX MIC (+EPI) ([2]; levofloxacin MIC with EPI at […], ATCC 27853): 1 µg/mL
 | CC(C)(O/N=C(\C(=O)N[C@@H]1C(=O)N2C(C(=O)[O-])=C(C[n+]3ccccc3)CS[C@H]12)c1csc(N)n1)C(=O)O [Ceftazidime, ceftazidime] | 1 | 0.5 | 2 | 0.25 | 2 | 
1 | CO/N=C(\C(=O)N[C@@H]1C(=O)N2C(C(=O)[O-])=C(C[n+]3cccc4c3CCC4)CS[C@H]12)c1csc(N)n1 [Cefpirome] |  | 2 |  |  |  | Fold difference of antibiotic MIC + TXA01182 [1]: 2 fold; Fold difference of antibiotic MIC + TXA09155 [1]: 8 fold; Fold difference of antibiotic MIC + TXA11114 [1]: 4 fold
 | NCC[C@H](O)C(=O)N[C@@H]1C[C@H](N)[C@@H](O[C@H]2O[C@H](CN)[C@@H](O)[C@H](O)[C@H]2O)[C@H](O)[C@H]1O[C@H]1O[C@H](CO)[C@@H](O)[C@H](N)[C@H]1O [AMK, amikacin] |  |  |  | 2 | 4 | MIC [2, 8]: 8 µg/mL; MIC [3, 6]: 1 µg/mL

Molecule | MIC of antibiotic + TXA09155 [1] [µg/mL] | MIC of antibiotic + TXA01182 [1] [µg/mL] | MIC of antibiotic + TXA11114 [1] [µg/mL] | MIC [2, 4] [µg/mL] | MIC [3, 5] [µg/mL] | MIC [3, 7] [µg/mL] | other results
C[C@H]1c2cccc(O)c2C(=O)C2=C(O)[C@]3(O)C(=O)C(C(N)=O)=C(O)[C@@H](N(C)C)[C@@H]3[C@@H](O)[C@@H]21 [Doxycycline, doxycycline] | 1 | 2 | 4 |  |  |  | MIC [2, 8]: 32 µg/mL
